Columns and labels:
[1] = system: [Ca^2+]i; assay: Intracellular Ca^2+ by Fura2 imaging, WT and GluN2A KO mouse neuronal cultures; assay type: cell-based, mice; conditions: somata and processes, L-homocysteine 50 μM, 60 min
Description: Embryos obtained from pregnant Sprague Dawley rats (16-17-day gestation) or wild type (WT) and GluN2A KO mice (15-16-day gestation) were used to establish primary cortical neuronal cultures as previously described (Poddar and Paul, 2009, J Neurochem 110:1095-1106; Poddar and Paul, 2013, J Neurochem 124:558-570; Poddar et al., 2017, J Neurochem 142:560-573). Neurons were grown on either (a) 35-mm culture dishes (MatTek Corp., Ashland, Mass.) coated overnight with poly-D-lysine (50 μg/ml) and laminin (10 μg/ml) for Ca^2+ imaging studies, (b) poly-D-lysine-coated 60 mm dishes (Corning BIOCOAT, Corning Inc., Corning, N.Y.) for biochemical studies, or (c) poly-D-lysine-coated 4-well culture slides (Corning BIOCOAT, Corning Inc., Corning, N.Y.) for cell death assay. Neurons were maintained in culture for 12-13 days before experiment. The cells were treated with freshly prepared L-homocysteine (50 μM) in Hank's balanced salt solution containing 50 μM of glycine (Lipton et al., 1997, Proceedings of the National Academy of Sciences of the United States of America 94:5923-5928; Poddar and Paul, 2009, J Neurochem 110:1095-1106; Poddar and Paul, 2013, J Neurochem 124:558-570; Poddar et al., 2017, J Neurochem 142:560-573) for the specified time periods. In a parallel series of experiments, cells were treated with glutamate (50 μM) for the specified time periods. Cells were then processed for live cell imaging, immunoblotting or cell death assay. In some experiments EGTA, DL-AP5, NVP-AAM077, Ro 25-6981 or PD98059 was added 15 minutes prior to L-homocysteine or glutamate treatment.
[Ca^2+]i in neurons was determined using the fluorescent indicator, Fura2-AM. […] Fluorescence excitations (340 and 380 nm) were provided with Sutter LB-LS/30 Lambda xenon arc lamp and fluorescence emissions (510 nm) were captured using a CCD camera (Teledyne Photometries, Tucson, Ariz.). […] Maximum and minimum fluorescence ratios were determined from Fura2 loaded cells treated with ionomycin (5 μM) in calcium containing medium (2 mM) or in calcium free media with EGTA (0.5 mM).

[2] = system: hyperhomocysteinemic rats subjected to MCAO; assay: Adhesive removal test after MCAO; assay type: in vivo, male Wistar rats; conditions: HHcy rats, 9 days after MCAO, NVP-AAM077 1.2 mg/kg
Description: All rats were subjected to a battery of behavioral tests on day 7 (CatWalk), day 8 (cylinder and rotarod tests) and day 9 (adhesive test) after MCAO to evaluate normal gait, motor coordination and sensory motor functions. Habituation and training (3 days) was performed for one week before MCAO. The first two trainings days were before osmotic pump implantation and the third training day was after pump implantation. An experienced observer blinded to the experimental conditions evaluated all behavioral parameters.
Adhesive removal test: Sensorimotor deficits following stroke was assessed by performing the adhesive removal test in control, hyperhomocysteinemic and NVP-AAM077 treated hyperhomocysteinemic rats. A small adhesive patch (7 mm×3 mm) was applied to the contralateral forepaw of each rat with equal pressure and the time taken to notice the presence of the patch (time to contact) and to remove it (time to remove) was recorded (Bouet et al., 2009, Nat Protoc 4:1560-1564). The time taken to notice the patch was recorded from the moment of placing the patch until the paw was shaken or touched by mouth. The time taken to remove the patch was recorded from the moment the mouth touched the paw to the time the patch was removed. The trial ended after the adhesive patch was removed or a maximum latency of three minutes. […]

Row | Compound | Fura2 fluorescence ratio and [Ca^2+]i ([1]; neurons from GluN2A KO mice) | Fura2 fluorescence ratio and [Ca^2+]i ([1]; neurons from WT mice) | time to contact adhesive tape, contralateral forepaw ([2]; untreated HHcy 76.82±5.45 s) | time to remove adhesive tape, contralateral forepaw ([2]; untreated HHcy 127.86±7.29 s)
1 | N[C@@H](CCS)C(=O)O [L-homocysteine] | fails to increase Fura2 fluorescence ratio or [Ca^2+]i | progressive increase in Fura2 fluorescence ratio and [Ca^2+]i |  | 
2 | C[C@H](NC(c1cccc2[nH]c(=O)c(=O)[nH]c12)P(=O)(O)O)c1ccc(Br)cc1 (stereo partly drawn) [NVP-AAM077, ({[(1S)-1-(4-bromophenyl)ethyl]amino}-(2,3-dioxo-1,4-dihydroquinoxalin-5-yl)methyl)phosphonic acid] |  |  | 31.18 ± 5.68 s | 44.24 ± 7.59 s

Reference: patent publication US11541065B2, “Compositions and methods for treating brain injury” (UNM RAINFOREST INNOVATIONS, priority 2018, dated 2023)
